# Experimental data from ChEMBL document CHEMBL1201862, “PubChem BioAssay data set” (2004).
#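 Protocol summary: plate cells (96-well), add compound at 5 concentrations, incubate 48 h, interpolate endpoints linearly. GI50 = concentration required for 50% inhibition of growth.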 Active and inactive are the calls of the source. No stated cut-off is given here; in the data, active = GI50 up to about 1.1 µM and inactive = higher.
# Columns and labels:
# Test in all cases: inhibition of tumour cell growth, NCI panel, 48 h
# SF-295 = test system: SF-295
# OVCAR-8 = test system: OVCAR-8
# NCI/ADR-RES = test system: NCI/ADR-RES
# ACHN = test system: ACHN
# NCI-H226 = test system: NCI-H226
# SK-MEL-2 = test system: SK-MEL-2
# HCT-15 = test system: HCT-15
# OVCAR-4 = test system: OVCAR-4
# HCT-116 = test system: HCT-116
# SR = test system: SR
# A549 = test system: A549
# RXF 393 = test system: RXF 393
# MDA-MB-231 = test system: MDA-MB-231
# SK-OV-3 = test system: SK-OV-3
# UACC-257 = test system: UACC-257
# MDA-N = test system: MDA-N
# UACC-62 = test system: UACC-62
# K562 = test system: K562
# SNB-19 = test system: SNB-19
# Hs-578T = test system: Hs-578T
Structure (SMILES),GI50 (SF-295),GI50 (OVCAR-8),GI50 (NCI/ADR-RES),GI50 (ACHN),GI50 (NCI-H226),GI50 (SK-MEL-2),GI50 (HCT-15) [µM],GI50 (OVCAR-4),GI50 (HCT-116),GI50 (SR),GI50 (A549),GI50 (RXF 393),GI50 (MDA-MB-231),GI50 (SK-OV-3),GI50 (UACC-257),GI50 (MDA-N),GI50 (UACC-62),GI50 (K562),GI50 (SNB-19),GI50 (Hs-578T)
O=C1C[C@H]2[C@@H](O1)[C@@H](O)CN1C(=O)c3ccccc3[C@H]21,> 100 µM (inactive),> 100 µM (inactive),> 100 µM (inactive),> 100 µM (inactive),> 100 µM (inactive),> 100 µM (inactive),> 100,> 100 µM (inactive),> 100 µM (inactive),> 100 µM (inactive),> 100 µM (inactive),> 100 µM (inactive),> 100 µM (inactive),> 100 µM (inactive),> 100 µM (inactive),> 100 µM (inactive),> 100 µM (inactive),> 100 µM (inactive),> 100 µM (inactive),
COc1cc2c(cc1O)C(C)Cc1cc3c(cc1N(C)CC2)OCO3 (stereo not drawn),2.78 µM (inactive),9.25 µM (inactive),,6.85 µM (inactive),6.65 µM (inactive),4.44 µM (inactive),3.94,15.7 µM (inactive),4.04 µM (inactive),4.45 µM (inactive),3.94 µM (inactive),1.77 µM (inactive),,3.32 µM (inactive),6.15 µM (inactive),,3.5 µM (inactive),2.8 µM (inactive),7.4 µM (inactive),
COc1cccc(C(NC2=NCCC=N2)c2cc3c(cc2O)OCO3)c1O (stereo not drawn),42.2 µM (inactive),10.4 µM (inactive),,48 µM (inactive),43.5 µM (inactive),24.4 µM (inactive),14.1,,24.1 µM (inactive),11.6 µM (inactive),41.1 µM (inactive),23.8 µM (inactive),23.6 µM (inactive),94 µM (inactive),34.4 µM (inactive),27.2 µM (inactive),23.3 µM (inactive),17.9 µM (inactive),46.1 µM (inactive),25.4 µM (inactive)
CN(C)CCNC(=O)c1cccc2nc3c(Cl)cccc3nc12,4.8 µM (inactive),4.46 µM (inactive),,3.13 µM (inactive),3.55 µM (inactive),5.22 µM (inactive),4.08,6.31 µM (inactive),3.16 µM (inactive),1.51 µM (inactive),4.33 µM (inactive),3.4 µM (inactive),,17.3 µM (inactive),4.93 µM (inactive),,2.02 µM (inactive),2.31 µM (inactive),8.13 µM (inactive),
COC(=O)[C@@]1(O)CC(C)C=C1C=O (stereo partly drawn),> 100 µM (inactive),> 100 µM (inactive),,> 100 µM (inactive),> 100 µM (inactive),> 100 µM (inactive),17.8,> 100 µM (inactive),20.8 µM (inactive),55.3 µM (inactive),24.6 µM (inactive),15.8 µM (inactive),,> 100 µM (inactive),> 100 µM (inactive),,73.6 µM (inactive),55 µM (inactive),> 100 µM (inactive),
N=c1oc2ccccc2cc1C(=O)Nc1nccs1,35.6 µM (inactive),16.8 µM (inactive),19.7 µM (inactive),4.54 µM (inactive),19.7 µM (inactive),26.9 µM (inactive),24.8,20.5 µM (inactive),26.8 µM (inactive),3.24 µM (inactive),44.6 µM (inactive),17.5 µM (inactive),33.7 µM (inactive),7.78 µM (inactive),27 µM (inactive),,32.2 µM (inactive),13.9 µM (inactive),52.2 µM (inactive),46.3 µM (inactive)
COc1ccc(C(=O)OC2C=COC(C)C2OC(=O)c2ccc(OC)cc2)cc1 (stereo not drawn),33.2 µM (inactive),23.6 µM (inactive),,42.4 µM (inactive),38.8 µM (inactive),17.5 µM (inactive),14.9,24.9 µM (inactive),10.2 µM (inactive),16.1 µM (inactive),48.1 µM (inactive),14.6 µM (inactive),,> 100 µM (inactive),21 µM (inactive),,18.4 µM (inactive),17 µM (inactive),41.5 µM (inactive),
Cc1nc(-[n+]2nc(-c3ccncc3)nn2-c2ccccc2)sc1C,9.93 µM (inactive),42.9 µM (inactive),84.5 µM (inactive),4.8 µM (inactive),32.1 µM (inactive),> 100 µM (inactive),16.4,,13.4 µM (inactive),> 100 µM (inactive),30.3 µM (inactive),18.7 µM (inactive),32.1 µM (inactive),21.2 µM (inactive),26.7 µM (inactive),,8.36 µM (inactive),4.91 µM (inactive),35.9 µM (inactive),44.4 µM (inactive)
